# Assay results from US9428665B2, “Photopolymerizable inkjet ink, ink cartridge, and inkjet recording device” (Ricoh Company, Ltd., priority 2011, dated 2016).
# Like-named read-outs stand apart in the source and are kept apart here.
# What was measured:
# female mice = experiment: Skin sensitization test based on the LLNA (Local Lymph Node Assay), SI value by BrdU intake; format: in vivo; conditions: test substance 50.0 w/v % in acetone:olive oil 4:1, 25 μL/auricle once/day × 3 days, SI less than 3 = negative for skin sensitization
# Excerpt: Here, the photopolymerizable monomer negative for skin sensitization refers to at least one of the following compounds (1) to (3): • (1) a compound having a Stimulation Index (SI value) of less than 3, where the Stimulation Index indicates the extent of sensitization as measured by a skin sensitization test based on the LLNA (Local Lymph Node Assay); • (2) a compound evaluated as “negative for skin sensitization” or “no skin sensitization” in its MSDS (Material Safety Data Sheet); and • (3) a compound evaluated as “negative for skin sensitization” or “without skin sensitization” in literature [e.g., Contact Dermatitis 8 223-235 (1982)]. […]
# According to the skin sensitization test based on the LLNA (Local Lymph Node Assay), the SI value was measured in the below described manner. […]
# Before treated with the test substances, the positive control or the vehicle control, female mice were acclimated for 8 days including 6-day quarantine. […] Based on the body weights measured 2 days before the initiation of sensitization, they were categorized into 2 groups (4 mice/group) by the body weight stratified random sampling method so that the body weight of each individual was within ±20% of the average body weight of all the individuals. […]
# [1] = cited from earlier work
# [2] = in vivo; cited from earlier work
# [3] = test method: the maximization method; cited from earlier work
# [4] = test method: OECD test guideline 406
compound,measurement,setting,value
"CCc1cc(CC)c2sc3ccccc3c(=O)c2c1 [2,4-Diethylthioxanthone]",SI value (Stimulation Index),female mice,1.4
CCCCC(CC)COC(=O)c1ccc(N(C)C)cc1 (centres unmarked) [2-ethylhexyl p-dimethylaminobenzoate],skin sensitization evaluated in the MSDS,[1]; [4],none
"C=COCCOCCOCCOC=C [Example B1, Triethylene glycol divinyl ether]",skin sensitization evaluated in the MSDS,[1]; [4],negative
"CCC(Cc1ccc(C)cc1)(C(=O)c1ccc(N2CCOCC2)cc1)N(C)C (centres unmarked) [Example C1, 2-Dimethylamino-2-(4-methylbenzyl)-1-(4-morpholin-4-yl-phenyl) butan-1-one]",skin sensitization evaluated in the MSDS,[1]; [4],none
"CSc1ccc(C(=O)C(C)(C)N2CCOCC2)cc1 [Example C2, 2-Methyl-1-[4-(methylthio)phenyl]-2-morpholinopropan-1-one]",skin sensitization evaluated in the MSDS,[1]; [4],none
"CCC(Cc1ccccc1)(C(=O)c1ccc(N2CCOCC2)cc1)N(C)C (centres unmarked) [Example C3, 2-Benzyl-2-dimethylamino-1-(4-morpholinophenyl)butanone-1]",skin sensitization evaluated in the MSDS,[1]; [4],none
"C=CC(=O)NCCO [HEAA, Hydroxyethylacryl amide]",skin sensitization evaluation (MSDS or literature),[2],none
"C=C(C)C(=O)OCCCCCC [HEXYL METHACRYLATE, n-Hexyl methacrylate]",skin sensitization evaluated in the literature,[3],negative
"C=C(C)C(=O)OC(C)(C)C [LIGHT ESTER TB, t-Butyl methacrylate]",skin sensitization evaluated in the literature,[3],negative
"C=C(C)C(=O)OCCCCC [n-AMYL METHACRYLATE, n-Pentyl methacrylate]",skin sensitization evaluated in the literature,[3],negative
Caprolactone-modified dipentaerythritol hexaacrylate [DPCA-60],skin sensitization evaluated in the MSDS,[1]; in vivo,negative
